Columns and labels:
[1] = tested on: HeLa cells or neuronal cells; assay: Cell death assay of Example 3 (MNNG, alamarBlue; protection against parthanatos, Table 4); assay type: cell-based; conditions: 1 μM test compound; for (%) inhibition of cell death: MNNG-induced cell death, alamarBlue
Procedure: Cell death assay: 200 μl of cells (HeLa cells or neuronal cells) culture (1×10^4 cells/well) were plated into the wells of a sterile 96-well cell culture plate. The cells were incubated for 18 hours at 37° C. The medium was removed and changed with 100 μl/well of 1 μM test compound. Incubate for 1 hours at 37° C. Ten μl of 500 μM MNNG (N-Methyl-N′-nitro-N-nitrosoguanidine) was added to each well. The medium was aspirated well and incubated for 15 min at 37° C. The cells were washed with the fresh medium. The medium was changed with 1 μM of test compound and incubated for 18 hours at 37° C. 10 μl/well of alamarBlue reagent was added directly to the well and incubated for 1 to 4 hours at 37° C. Fluorescence was measured using a fluorescence excitation wavelength of 560 nm and emission at 590 nm. The percentage of cell death was determined as the ratio of live to dead cells compared with the percentage of cell death in control wells to account for cell death attributed to mechanical stimulation of the cultures.

MIF = target: T1, MIF (Homo sapiens, UniProt P14174); assay: Nuclease assay of Example 3 (MIF inhibitory activity, Table 4); assay type: biochemical; set-up: (%) inhibition of MIF nuclease activity: concentration or dose not given beside the values; conditions: for (%) inhibition of MIF nuclease activity: nuclease assay of Example 3
T1 sequence (P14174 1-115): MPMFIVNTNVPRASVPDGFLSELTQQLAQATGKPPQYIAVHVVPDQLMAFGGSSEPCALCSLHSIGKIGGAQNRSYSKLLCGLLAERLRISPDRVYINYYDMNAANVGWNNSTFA
Procedure: A rapafucin library was synthesized as described in WO2017/136708 and Guo et al. (2018) Nat. Chem. 11:254-63. The hybrid macrocyclic library consisted of 45,000 compounds in pools of 15 individual compounds. The library compounds were screened for MIF inhibitory activity using a nuclease assay as detailed in FIG. 1 and below.
Nuclease assay: Human genomic DNA (200 ng/reaction, Promega), pcDNA (200 ng/reaction) or PS^30 and its related and non-related substrates (1 μM) was incubated with wild type MIF or its variants at a final concentration of 0.25-8 μM as indicated in 10 mM Tris-HCl buffer (pH 7.0) containing 10 mM MgCl2 and 1 mM DTT or specific buffer as indicated, for 1 h (with pcDNA and small DNA substrates) or 4 h (with human genomic DNA) at 37° C. The reaction was terminated with loading buffer containing 10 mM EDTA and incubation on ice. The human genomic DNA samples were immediately separated on a 1.2% pulse field certified agarose in 0.5×TBE buffer with initial switch time of 1.5 s and a final switch time of 3.5 s for 12 h at 6 V/cm. pcDNA samples were determined by 1% agarose gel. Small DNA substrates were separated on 15% or 25% TBE-urea polyacrylamide (PAGE) gel or 20% TBE PAGE gel. Then gel was stained with 0.5 μg/ml Ethidium Bromide (EtBr) followed by electrophoretic transfer to nylon membrane. Then, Biotin-labeled DNA is further detected by chemiluminescence using Chemiluminescent Nucleic Acid Detection Module (Thermo Scientific).
Structure-activity relationship (SAR) analysis was then conducted on the compounds identified as having MIF inhibitory activity. Compounds having the structure of Formula (I) were then synthesized as shown in Example 1 and tested for MIF inhibitory activity using the nuclease assay described herein and neuronal protection via a cell death assay as detailed below.

Compound | (%) inhibition of cell death [1] | (%) inhibition of MIF nuclease activity (MIF) | protection against parthanatos (cell death) [1] | MIF nuclease activity (MIF) | (%) inhibition of cell death ([1]; 1 µM)
COc1ccc(CC[C@H]2OC(=O)[C@@H]3CCCCN3C(=O)C(=O)C(C)(C)COC(=O)C=CCCN(C)C(=O)[C@H](C)NC(=O)[C@H](COC(C)(C)C)N(C)C(=O)[C@H](Cc3ccc4ccccc4c3)NC(=O)[C@H](C)N(C)C(=O)COc3cccc2c3)cc1OC [compound 17] | 78.3% | 63.7% |  |  | 
COc1ccc(CC[C@H]2OC(=O)[C@@H]3CCCCN3C(=O)C(=O)C(C)(C)COC(=O)C=CCCN(C)C(=O)[C@H](Cc3ccc4ccccc4c3)NC(=O)[C@H](COC(C)(C)C)N(C)C(=O)C(c3ccccc3)NC(=O)[C@H](C)N(C)C(=O)COc3cccc2c3)cc1OC (some centres unmarked) [compound 58] | 56.1% | 16.5% |  |  | 
COc1ccc(CC[C@H]2OC(=O)[C@@H]3CCCCN3C(=O)C(=O)C(C)(C)COC(=O)C=CCCN(C)C(=O)[C@@H]3CCCN3C(=O)[C@H](COC(C)(C)C)N(C)C(=O)[C@H](Cc3ccncc3)NC(=O)[C@H](C)N(C)C(=O)COc3cccc2c3)cc1OC [compound 104] | 20.4% | 13.2% |  |  | 
COc1ccc(CC[C@H]2OC(=O)[C@@H]3CCCCN3C(=O)C(=O)C(C)(C)COC(=O)C=CCCN(C)C(=O)[C@@H](Cc3ccccc3)NC(=O)[C@H](COC(C)(C)C)N(C)C(=O)[C@@H](CC(C)C)NC(=O)CN(C)C(=O)COc3cccc2c3)cc1OC [compound 9] | 57.4% | 16.5% |  |  | 
COc1ccc(CC[C@H]2OC(=O)[C@@H]3CCCCN3C(=O)C(=O)C(C)(C)COC(=O)C=CCCN(C)C(=O)[C@@H]3CCCN3C(=O)[C@H](COC(C)(C)C)N(C)C(=O)C(c3ccccc3)NC(=O)C(c3ccccc3)N(C)C(=O)COc3cccc2c3)cc1OC (some centres unmarked) [compound 144] | 51.3% | 10.7% |  |  | 
COc1ccc(CC[C@H]2OC(=O)[C@@H]3CCCCN3C(=O)C(=O)C(C)(C)COC(=O)C=CCCN(C)C(=O)[C@H](c3ccccc3)NC(=O)[C@H](Cc3ccccc3)N(C)C(=O)[C@@H](C)NC(=O)CN(C)C(=O)COc3cccc2c3)cc1OC [compound 75] | 52.8% | 34.9% |  |  | 
C[C@H]1C(=O)NC(c2ccccc2)C(=O)N(C)[C@@H](COC(C)(C)C)C(=O)N2CCC[C@H]2C(=O)N(C)CCC=CC(=O)OCC(C)(C)C(=O)C(=O)N2CCCC[C@H]2C(=O)O[C@H](CCc2ccccc2)c2cccc(c2)OCC(=O)N1C (some centres unmarked) [compound 149] | 51.0% | −11.8% |  |  | 
COc1ccc(OC)c(OC)c1CC[C@H]1OC(=O)[C@@H]2CCCCN2C(=O)C(=O)C(C)(C)COC(=O)C=CCCN(C)C(=O)[C@@H]2CCCN2C(=O)[C@H](COC(C)(C)C)N(C)C(=O)C(c2ccccc2)NC(=O)[C@H](C)N(C)C(=O)COc2cccc1c2 (some centres unmarked) [compound 123] | 82.4% | −5.1% | protect against parthanatos | do not inhibit MIF nuclease activity | 
COc1ccc(CC[C@H]2OC(=O)[C@@H]3CCCCN3C(=O)C(=O)C(C)(C)COC(=O)C=CCCN(C)C(=O)[C@@H]3CCCN3C(=O)[C@H](COC(C)(C)C)N(C)C(=O)C(c3ccccc3)NC(=O)[C@H](COC(C)(C)C)N(C)C(=O)COc3cccc2c3)cc1OC (some centres unmarked) [compound 146] | 43.9% | −1.1% |  |  | 
COc1ccc(CC[C@H]2OC(=O)[C@@H]3CCCCN3C(=O)C(=O)C(C)(C)COC(=O)C=CCCN(C)C(=O)[C@H](Cc3ccc4ccccc4c3)NC(=O)[C@H](COC(C)(C)C)N(C)C(=O)C(c3ccccc3)NC(=O)CN(C)C(=O)COc3cccc2c3)cc1OC (some centres unmarked) [compound 43] | 54.8% | 45.6% |  |  | 
COc1ccc(CC[C@H]2OC(=O)[C@@H]3CCCCN3C(=O)C(=O)C(C)(C)COC(=O)C=CCCN(C)C(=O)[C@@H]3CCCN3C(=O)[C@H](COC(C)(C)C)N(C)C(=O)C(c3ccccc3)NC(=O)[C@H](C(C)CC(C)(C)C)N(C)C(=O)COc3cccc2c3)cc1OC (some centres unmarked) [compound 147] | 46.2% | −4.7% |  |  | 
COc1ccc(CC[C@H]2OC(=O)[C@@H]3CCCCN3C(=O)C(=O)C(C)(C)COC(=O)C=CCCN(C)C(=O)[C@@H]3CCCN3C(=O)[C@H](COC(C)(C)C)N(C)C(=O)C(c3ccccc3)NC(=O)[C@H](C)N(C)C(=O)COc3cccc2c3)cc1OC (some centres unmarked) [compound 152] |  | −2.4% |  |  | 43.0%
COc1ccc(CC[C@H]2OC(=O)[C@@H]3CCCCN3C(=O)C(=O)C(C)(C)COC(=O)C=CCCN(C)C(=O)[C@H](CC(C)C)NC(=O)[C@H](C(C)C)N(C)C(=O)[C@@H](Cc3ccccc3)NC(=O)[C@H](CC(C)C)N(C)C(=O)CCC(=O)Nc3cccc2c3)cc1OC [compound 81] | 49.8% | 12.3% |  |  | 
COc1ccc(CC[C@H]2OC(=O)[C@@H]3CCCCN3C(=O)C(=O)C(C)(C)COC(=O)C=CCCN(C)C(=O)[C@@H]3CCCN3C(=O)[C@H](COC(C)(C)C)N(C)C(=O)C(c3ccccc3)NC(=O)CN(C)C(=O)COc3cccc2c3)cc1OC (some centres unmarked) [compound 107] |  | 20.0% |  |  | 15.1%
COc1cc(F)c(CCC2OC(=O)[C@@H]3CCCCN3C(=O)C(=O)C(C)(C)COC(=O)C=CCCN(C)C(=O)[C@@H]3CCCN3C(=O)[C@H](COC(C)(C)C)N(C)C(=O)C(c3ccccc3)NC(=O)[C@H](C)N(C)C(=O)COc3cccc2c3)cc1OC (some centres unmarked) [compound 110] | 59.3% | 20.9% |  |  | 
COc1ccc(CC[C@H]2OC(=O)[C@@H]3CCCCN3C(=O)C(=O)C(C)(C)COC(=O)C=CCCN(C)C(=O)[C@@H]3CCCN3C(=O)[C@H](COC(C)(C)C)N(C)C(=O)C(Cc3ccc(O)cc3)NC(=O)[C@H](C)NC(=O)COc3cccc2c3)cc1OC (some centres unmarked) [compound 142] | 42.5% | −4.7% |  |  | 
COc1cccc(CC[C@H]2OC(=O)[C@@H]3CCCCN3C(=O)C(=O)C(C)(C)COC(=O)C=CCCN(C)C(=O)[C@@H]3CCCN3C(=O)[C@H](COC(C)(C)C)N(C)C(=O)C(c3ccccc3)NC(=O)[C@H](C)N(C)C(=O)COc3cccc2c3)c1 (some centres unmarked) [compound 150] | 50.8% | 10.7% |  |  | 
COc1ccc(CC[C@H]2OC(=O)[C@@H]3CCCCN3C(=O)C(=O)C(C)(C)COC(=O)C=CCCN(C)C(=O)[C@@H]3CCCN3C(=O)[C@H](COC(C)(C)C)N(C)C(=O)C(c3ccccc3)NC(=O)[C@H](C)N(C)C(=O)COc3cccc2c3)cc1OC (some centres unmarked) [compound 102] |  | 59.5% |  |  | 77.7%
COc1ccc(CC[C@H]2OC(=O)[C@@H]3CCCCN3C(=O)C(=O)C(C)(C)COC(=O)C=CCCN(C)C(=O)[C@H](Cc3ccc(F)cc3)NC(=O)[C@H](COC(C)(C)C)N(C)C(=O)[C@@H](CC(C)C)NC(=O)CN(C)C(=O)COc3cccc2c3)cc1OC [compound 10] | 57.2% | 56.8% |  |  | 
COc1ccc(CC[C@H]2OC(=O)[C@@H]3CCCCN3C(=O)C(=O)C(C)(C)COC(=O)C=CCCN(C)C(=O)[C@H](Cc3ccccc3)NC(=O)[C@H](COC(C)(C)C)N(C)C(=O)C(c3ccccc3)NC(=O)[C@H](C)N(C)C(=O)COc3cccc2c3)cc1OC (some centres unmarked) [compound 53] | 58.3% | 14.1% |  |  | 
COc1ccc(CC[C@H]2OC(=O)[C@@H]3CCCCN3C(=O)C(=O)C(C)(C)COC(=O)C=CCCN(C)C(=O)[C@@H]3CCCN3C(=O)[C@H](COC(C)(C)C)N(C)C(=O)C(c3ccccc3)NC(=O)[C@@H](C)N(C)C(=O)COc3cccc2c3)cc1OC (some centres unmarked) [compound 106] | 13.1% | 11.9% |  |  | 
